Assay results as given in the C3SDB collision cross section collection.

Conditions: instrument: DT, stepped-field

| Compound | collision cross section (N2) ([M+2Na-H]+) | collision cross section (N2) ([M+Na]+) | other results |
| --- | --- | --- | --- |
| CCCC/C=C\CCCCCCCC(=O)OC[C@H](COP(=O)(O)O)OC(=O)CCCCCCCCC/C=C\CCCCCCCCCC [PA(36:02)] | 273.1 Å² | 272.25 Å² | – |
| CCCCC/C=C\C/C=C\C/C=C\C/C=C\CCCC(=O)O[C@H](COC(=O)CCCCCCCCCCCCCCC)COP(=O)(O)O [PA(36:04)] | 270.03 Å² | 268.39 Å² | – |
| CCCCC/C=C\C/C=C\CCCCCCCCCC(=O)O[C@H](COC(=O)CCCCCCC/C=C\C/C=C\CCCCC)COP(=O)(O)O [PA(38:04)] | 276.1 Å² | 276.54 Å² | – |
| CCCCCC/C=C/CCCCCCCCCC(=O)O[C@H](COC(=O)CCCCCCCCCCCCCCC)COP(=O)([O-])OCC[N+](C)(C)C [PC(34:01)] | 283.9 Å² | 284.83 Å² | collision cross section (N2) ([M+Cl]-): 290.47 Å²; collision cross section (N2) ([M+HCOO]-): 290.79 Å²; collision cross section (N2) ([M+H]+): 281.97 Å²; collision cross section (N2) ([M+K]+): 285.76 Å² |
| CCCCC/C=C\C/C=C\CCCCCCCCCCCC(=O)O[C@H](COC(=O)CCCCCCCCCCCC)COP(=O)([O-])OCC[N+](C)(C)C [PC(35:02)] | – | 285.81 Å² | – |
| CCCCC/C=C\C/C=C\CCCC/C=C\CCCC(=O)O[C@H](COC(=O)CCCCCCCCCCCCCCCCC)COP(=O)([O-])OCC[N+](C)(C)C [PC(38:03)] | – | 293.06 Å² | collision cross section (N2) ([M+Cl]-): 299.51 Å² |
| CC/C=C\C/C=C\C/C=C\C/C=C\C/C=C\CCCC(=O)O[C@H](COC(=O)CCCCCCC/C=C\CCCCCCCC)COP(=O)([O-])OCC[N+](C)(C)C [PC(38:06)] | – | – | collision cross section (N2) ([M+Cl]-): 296.13 Å²; collision cross section (N2) ([M+HCOO]-): 295.99 Å² |
| CC/C=C/C=C\C=C/C=C\C=C/C=C\CCCCCCCC(=O)O[C@H](COC(=O)CCCCCCCCCCCCCCCCC)COP(=O)([O-])OCC[N+](C)(C)C [PC(40:06)] | – | 294.42 Å² | – |
| CCCCCCCC/C=C\CCCCCCCCCC(=O)O[C@H](COC(=O)CCCCCCCCCCC)COP(=O)(O)OCCN [PE(32:01)] | 268.9 Å² | 268.62 Å² | – |
| CCCCCC/C=C\CCCCCCCCCC(=O)O[C@H](COC(=O)CCCCCCCCCCCCCCC)COP(=O)(O)OCCN [PE(34:01)] | 275.64 Å² | 276.03 Å² | collision cross section (N2) ([M+H]+): 270.06 Å²; collision cross section (N2) ([M+K]+): 277.57 Å²; collision cross section (N2) ([M-H]-): 266.91 Å² |
| CCCCC/C=C\C/C=C\CCCCCCCCCCCC(=O)O[C@H](COC(=O)CCCCCCCCCCC)COP(=O)(O)OCCN [PE(34:02)] | 273.28 Å² | 273.06 Å² | collision cross section (N2) ([M+H]+): 268.45 Å²; collision cross section (N2) ([M+K]+): 274.83 Å²; collision cross section (N2) ([M-H]-): 265.55 Å² |
| CCCCCCC/C=C\CCCCCCCC(=O)O[C@H](COC(=O)CCCCCCC/C=C\CCCCCCCC)COP(=O)(O)OCCN [PE(35:02)] | – | 275.61 Å² | collision cross section (N2) ([M+K]+): 277.37 Å² |
| CCCCCCCCCCCCCCCCCCCCC(=O)OC[C@H](COP(=O)(O)OCCN)OC(=O)CCCCCCCCCCCCCC [PE(36:00)] | – | – | collision cross section (N2) ([M-H]-): 274.96 Å² |
| CCCCCC/C=C\CCCCCCCC(=O)OC[C@H](COP(=O)(O)OCCN)OC(=O)CCCCCCCCC/C=C\CCCCCCCC [PE(36:02)] | 281.26 Å² | 279.88 Å² | collision cross section (N2) ([M+H]+): 275.13 Å²; collision cross section (N2) ([M+K]+): 280.72 Å²; collision cross section (N2) ([M-H]-): 272.07 Å² |
| CC/C=C\C/C=C\C/C=C\C/C=C\CCCCC(=O)O[C@H](COC(=O)CCCCCCC/C=C\CCCCCCCC)COP(=O)(O)OCCN [PE(36:05)] | – | – | collision cross section (N2) ([M+K]+): 274.4 Å² |
| CCCCC/C=C\C/C=C\CCCCCCCC(=O)OC[C@H](COP(=O)(O)OCCN)OC(=O)CCCCCCC/C=C\CCCCCCCCC [PE(37:03)] | 282.12 Å² | 280.15 Å² | – |
| CCCCCCCC/C=C\CCCCCCCCCCCC(=O)O[C@H](COC(=O)CCCCCCCCCCCCCCC)COP(=O)(O)OCCN [PE(38:01)] | – | 285.93 Å² | – |
| CCCCC/C=C\C/C=C\CCCCCCCCCC(=O)O[C@H](COC(=O)CCCCCCC/C=C\CCCCCCCC)COP(=O)(O)OCCN [PE(38:03)] | 286.46 Å² | – | collision cross section (N2) ([M-H]-): 277.01 Å² |
| CC/C=C\C/C=C\C/C=C\C/C=C\CCCCC(=O)OC[C@H](COP(=O)(O)OCCN)OC(=O)CCCCCCCCC/C=C\C/C=C\CCCCC [PE(38:06)] | 281 Å² | – | collision cross section (N2) ([M-H]-): 273.81 Å² |
| CCCCC/C=C\C/C=C\CCCCCCCC(=O)OC[C@H](COP(=O)(O)OCCN)OC(=O)CCCCCCCCCCCCCCCCCCCC [PE(39:02)] | 291.84 Å² | – | – |
| CCCCC/C=C\C/C=C\C/C=C\C/C=C\CCCCCC(=O)O[C@H](COC(=O)CCCC/C=C\C/C=C\C/C=C\CCCCC)COP(=O)(O)OCCN [PE(40:07)] | 286.07 Å² | – | – |

| Compound | collision cross section (N2) ([M+2Na-H]+) | collision cross section (N2) ([M+Na]+) | other results |
| --- | --- | --- | --- |
| CC/C=C\C/C=C\C/C=C\C/C=C\C/C=C\C/C=C\CCC(=O)O[C@H](COC(=O)CCCCCCCCC/C=C\CCCCCCCC)COP(=O)(O)OCCN [PE(42:07)] | – | – | collision cross section (N2) ([M+K]+): 291.12 Å² |
| CCCCC/C=C\C/C=C\C/C=C\CCCCC(=O)O[C@H](COCCCCCCCCCCCCCCCC)COP(=O)(O)OCCN [PE(o34:03)] | 271.58 Å² | 270.85 Å² | – |
| CCCCC/C=C\C/C=C\CCCCCCCC(=O)O[C@H](COCCCCCCCCCCCCCCCCCCCC)COP(=O)(O)OCCN [PE(o38:02)] | 289.33 Å² | – | – |
| CCCCC/C=C\C/C=C\C/C=C\CCCCC(=O)O[C@H](COCCCCCCCCCCCCCCCCCCCC)COP(=O)(O)OCCN [PE(o38:03)] | 287.42 Å² | 283.24 Å² | – |
| CCCCC/C=C\C/C=C\C/C=C\C/C=C\CCCC(=O)O[C@H](COCCCCCCCCCCCCCCCCCC)COP(=O)(O)OCCN [PE(o38:04)] | 284.68 Å² | – | – |
| CCCCCCCCCC/C=C\CCCCCCCCCC(=O)O[C@H](COC(=O)CCCCCCCCCCC)COP(=O)(O)OC[C@H](N)C(=O)O [PS(34:01)] | 280.81 Å² | – | – |
| CCCCCCCCCCCCCCCCCC(=O)OC[C@H](COP(=O)(O)OC[C@H](N)C(=O)O)OC(=O)CCCCCCCCCCCCCCCCC [PS(36:00)] | – | – | collision cross section (N2) ([M-H]-): 284.03 Å² |
| CCCCCCCCCC/C=C\CCCCCCCCCC(=O)O[C@H](COC(=O)CCCCCCCCCCCCCC)COP(=O)(O)OC[C@H](N)C(=O)O [PS(37:01)] | 293.47 Å² | – | – |
| CCCCC/C=C\C/C=C\CCCCCCCCCCCC(=O)O[C@H](COC(=O)CCCCCCCCCCCCCC)COP(=O)(O)OC[C@H](N)C(=O)O [PS(37:02)] | 289.29 Å² | – | – |
| CCCCC/C=C\C/C=C\C/C=C\CCCCCCC(=O)O[C@H](COC(=O)CCCCCCC/C=C\CCCCCCC)COP(=O)(O)OC[C@H](N)C(=O)O [PS(37:04)] | 285.85 Å² | – | – |
| CCCCC/C=C\C/C=C\C/C=C\CCCCCCC(=O)O[C@H](COC(=O)CCCCCCC/C=C\CCCCCCCC)COP(=O)(O)OC[C@H](N)C(=O)O [PS(38:04)] | 288.75 Å² | – | collision cross section (N2) ([M+H]+): 284.44 Å²; collision cross section (N2) ([M+K]+): 289.37 Å²; collision cross section (N2) ([M-H]-): 285.11 Å² |
| CCCCC/C=C\C/C=C\C/C=C\CCCCCCC(=O)O[C@H](COC(=O)CCCCCCC/C=C\C/C=C\CCCCC)COP(=O)(O)OC[C@H](N)C(=O)O [PS(38:05)] | 285.68 Å² | – | collision cross section (N2) ([M+H]+): 281.67 Å²; collision cross section (N2) ([M+K]+): 286.6 Å²; collision cross section (N2) ([M-H]-): 283.69 Å² |
| CC/C=C\C/C=C\C/C=C\C/C=C\C/C=C\C/C=C\CCC(=O)OC[C@H](COP(=O)(O)OC[C@H](N)C(=O)O)OC(=O)CCCCCCCCCCCCCCCCCC [PS(41:06)] | 296.18 Å² | – | – |
| CCCCC/C=C\C/C=C\C/C=C\C/C=C\CCCCCC(=O)O[C@H](COC(=O)CCCCCCCCC/C=C\C/C=C\CCCCC)COP(=O)(O)OC[C@H](N)C(=O)O [PS(42:06)] | 297.48 Å² | – | – |
| CCCCC/C=C\C/C=C\C/C=C\C/C=C\CCCCCC(=O)O[C@H](COC(=O)CCC/C=C\C/C=C\C/C=C\C/C=C\CCCCC)COP(=O)(O)OC[C@H](N)C(=O)O [PS(42:08)] | 295.25 Å² | – | collision cross section (N2) ([M-H]-): 291.98 Å² |
| CC/C=C\C/C=C\C/C=C\C/C=C\C/C=C\CCCC(=O)OC[C@H](COP(=O)(O)OC[C@H](N)C(=O)O)OC(=O)CCCCC/C=C\C/C=C\C/C=C\C/C=C\CCCCC [PS(42:09)] | 292.63 Å² | – | collision cross section (N2) ([M+K]+): 294.57 Å²; collision cross section (N2) ([M-H]-): 290.63 Å² |
| CCCCCCCCCCCCC=CC[C@@H](O)[C@H](COP(=O)([O-])OCC[N+](C)(C)C)NC(=O)CCCCCCCCCCCCCCCC [SM(35:01)] | – | 280.61 Å² | – |
| CCCCCCCCCCCCC=CC[C@@H](O)[C@H](COP(=O)([O-])OCC[N+](C)(C)C)NC(=O)CCCCCCCCCCCCCCCCCC [SM(37:01)] | – | 285.35 Å² | collision cross section (N2) ([M+H]+): 288.67 Å² |
| CCCCCCCCCCCCCCCCCCCC(=O)N[C@@H](COP(=O)([O-])OCC[N+](C)(C)C)[C@H](O)CCCCCCCCCCCCCCC [SM(38:00)] | 294.68 Å² | – | – |
| CCCCCCCCCCCCC=CC[C@@H](O)[C@H](COP(=O)([O-])OCC[N+](C)(C)C)NC(=O)CCCCCCCCCCCCCCCCCCC [SM(38:01)] | – | 292.18 Å² | collision cross section (N2) ([M+Cl]-): 294.7 Å²; collision cross section (N2) ([M+HCOO]-): 296.3 Å²; collision cross section (N2) ([M+H]+): 292.26 Å² |
| CCCCCCCCCCCCC=CC[C@@H](O)[C@H](COP(=O)([O-])OCC[N+](C)(C)C)NC(=O)CCCCCCCCCCCCCCCCCCCC [SM(39:01)] | – | 294.58 Å² | collision cross section (N2) ([M+H]+): 295.85 Å² |
